PubChem BioAssay (NCI)
“And” between values parts separate entries of the source, which are not always exact repeats. Equal values may be shown once.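 Values below derive from 48-hour exposures of cells grown in 96-well plates, with endpoints linearly interpolated between the two concentrations bracketing the appropriate inhibition level. GI50 marks 50% less growth. TGI: total growth inhibition.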

Key:
Experiment in all cases: inhibition of tumour cell growth, NCI panel, 48 h
[1] = tested on: SK-MEL-2 melanoma
[2] = tested on: NCI/ADR-RES ovarian
[3] = tested on: PC-3 prostate
[4] = tested on: UO-31 renal
[5] = tested on: HL-60(TB) leukemia

SMILES	TGI [1]	TGI [2]	TGI [3]	TGI [4]	TGI [5]	GI50 [5]
CC[C@H]1C=CCC[C@@]2(C[C@@H]3CC[C@H]4[C@H](C(=O)OCCCCCCCCCCCCCCCC(=O)N(CCCN)C[C@@H](O)CCN)[C@]5(CCC[C@@H](C)O5)NC(=[N+]34)N2)O1	2.06 µM	4.81 µM	2.06 µM	1.69 µM	1.35 µM	–
CCc1ccccc1NC(=O)C(=O)CC(=O)c1sc(Nc2ccccc2Cl)nc1C	56.1 µM	> 100 µM	> 100 µM	> 100 µM	> 100 µM	–
NC(=O)OCc1c(-c2ccccc2)nn(-c2ccccc2)c1COC(N)=O	> 100 µM	> 100 µM	> 100 µM	> 100 µM	–	–
CCOC(=O)c1ccc(N=c2oc3ccc(OC)cc3cc2-c2nc3ccccc3[nH]2)cc1	> 100 µM	> 100 µM	> 100 µM	> 100 µM	> 100 µM	–
CC1=CC(=O)/C(=C/n2c(=S)[nH]c3ccc([N+](=O)[O-])cc32)C(=O)O1	> 100 µM	> 100 µM	> 100 µM	> 100 µM	4.93 µM	–
O=[N+]([O-])c1ccc(C(=Nc2ccccc2)SSC(=Nc2ccccc2)c2ccc([N+](=O)[O-])o2)o1	6.15 µM	7.43 µM	4.03 µM	2.82 µM	8.61 µM	–
CC(=O)CCC[C@H](C)[C@@H](O)[C@@H]1O[C@H]([C@@]2(C)CCC(=O)O2)C[C@H]1C(=O)O	> 100 µM	> 100 µM	> 100 µM	> 100 µM	–	–
O=C(CC(=O)N1N=C(N(c2ccccc2)c2ccccc2)CC1c1ccccc1)Nc1ccccc1 (centres undefined)	> 100 µM	> 100 µM	> 100 µM	> 100 µM	> 100 µM	–
COc1ccc(-n2sc3ncc([N+](=O)[O-])cc3c2=O)cc1	> 100 µM	> 100 µM	> 100 µM	> 100 µM	> 100 µM	–
COc1cccc(Nc2nc(N)nc(N)c2N=O)c1	> 100 µM	52.5 µM	> 100 µM	38.1 µM	79 µM	–
CN(C)CCCN1c2ccccc2CCc2cc([N+](=O)[O-])ccc21	39.4 µM and 38.8 µM	82 µM and 39.8 µM	76.8 µM and 34.3 µM	70.8 µM and 28.7 µM	54 µM and 9.46 µM	19.2 µM and 2.83 µM
OC(CC(O)(C(F)(F)F)C(F)(F)F)C(O)c1ccco1 (centres undefined)	> 10 µM	> 10 µM	> 10 µM	> 10 µM	> 10 µM	–
C=CCC1C(=O)Nc2cccc3ncn(c23)C1=O (centres undefined)	> 100 µM	> 100 µM	> 100 µM	> 100 µM	> 100 µM	–
COc1ccc(C(SCC(N)C(=O)O)(c2ccc(OC)cc2)c2ccc(OC)cc2)cc1 (centres undefined)	18.4 µM	19.4 µM	17.9 µM	20 µM	> 31.6 µM	–
O=C(OCc1ccccc1)N1CCCc2c(n(S(=O)(=O)c3ccccc3)c3ccccc23)C1	> 100 µM	> 100 µM	> 100 µM	> 100 µM	> 100 µM	–
